Assay results: patent US20200289522A1 (Shionogi & Co., Ltd., priority 2019, published 2020)
Like-named read-outs stand apart in the source and are kept apart here.

Experiments:
[1] = Plasma concentration after oral administration of prodrug Compound II-6 to rats under non-fasting conditions; type: in vivo
Description: FIGS. 1 and 2 show a result of measuring the plasma concentration of Compound III and
Compound II-6, respectively, after oral administration of prodrug Compound II-6 to rats under non-fasting conditions.

[2] = test system: influenza virus; type: in vivo, human
[3] = test system: type B influenza virus; type: in vivo, human; conditions: for median time to improvement of influenza symptoms: BXM single dose 40/80 mg, oseltamivir 75 mg twice daily for 5 days

In the case of COC(=O)OCOc1c2n(ccc1=O)N([C@@H]1c3ccccc3SCc3c1ccc(F)c3F)[C@@H]1COCCN1C2=O [II-6, Baloxavir marboxil], the “concentration of Compound II-6 in plasma” value ([1]; non-fasting, oral II-6 0.3, 1, 3 and 10 mg/kg, all time points 0.25 h to 24 h, below limit of quantification) is reported as < 0.500 ng/mL and the “conversion of prodrug to Compound III in vivo after administration” value ([1]; oral administration) is reported as “metabolized promptly to Compound III”.
For Baloxavir marboxil [II-6], the “primary endpoint (time to improvement of influenza symptoms) compared with placebo” value ([2]; BXM 40 or 80 mg single oral dose) was “statistically significant improvement”, the “change from baseline in an influenza virus titer [log 10(TCID50/mL)] by time” value ([2]; by day 2, vs placebo and oseltamivir) was “statistically significantly superior to placebo and oseltamivir” and the “Difference between BXM and placebo in Time to Improvement of Influenza Symptoms” value ([2]; difference of medians, generalized Wilcoxon test p-value <0.0001) was −29.1. For the same compound, the “Time to Improvement of Influenza Symptoms” value ([2]; median, BXM 40/80 mg single oral dose by body weight, N = 385, ITTI population) was 73.2, the “incidence of influenza-related complication: bronchitis” value ([2]; vs placebo) was “statistically signicantly superior to placebo” and the “incidence of influenza-related complication: sinusitis” value ([2]; vs placebo) was “statistically signicantly superior to placebo”. For the same compound, the “time to cessation of viral shedding by a virus titer” value ([2]; vs placebo and oseltamivir) was “statistically significantly superior to placebo and oseltamivir”, the “incidence of influenza-related complications, any complications” value ([2]; vs placebo, Fisher's exact test) was “statistically significantly superior to placebo” and the “median time to improvement of influenza symptoms” value ([3]; […]) was 74.6 h. For the same compound, the “change from baseline in an influenza virus titer [log 10(TCID50/mL)] by time, type B virus” value ([3]; […], by day 2, vs placebo and oseltamivir) was “statistically significantly superior to placebo and oseltamivir”, the “median difference in time to improvement of influenza symptoms, BXM vs placebo” value ([3]; type B influenza virus, generalized Wilcoxon test p-value=0.0138) was -26.0 h and the “median difference in time to improvement of influenza symptoms, BXM vs oseltamivir” value ([3]; type B influenza virus, generalized Wilcoxon test p-value=0.0251) was -27.1 h.
In the case of CCOC(=O)C1=C[C@@H](OC(CC)CC)[C@H](NC(C)=O)[C@@H](N)C1 [oseltamivir, reference compound], the “median time to improvement of influenza symptoms” value ([3]; patients infected with type B influenza virus) is reported as 101.6 h.
